From the supplement of paper PMC10307832

These cell lines were tested with COc1cc2nc(N3CCCN(C)CC3)nc(NC3CCN(Cc4ccccc4)CC3)c2cc1OC + Cc1cc(Nc2cc(N3CCN(C)CC3)nc(Sc3ccc(NC(=O)C4CC4)cc3)n2)n[nH]1 [Tozasertib] (partner 0.1 µM) (assay: relative viability (nuclei count vs DMSO), 5 days (fraction); higher = more cells survive). Settings: first compound 0.2 µM.
Summary of the method: (§1)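 Medians of duplicate plates are given as relative viability. That measure is the nuclei count in treated wells divided by the count in vehicle wells. Counts were taken on 4× images of lung cancer cell lines in 1536-well plates, 5 days after pin-tool dosing the day after seeding with one drug alone or a fixed anchor-drug dose plus five library-drug doses (not always all listed) in √10 steps.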

Compared with NCI-H727, NCI-H1993 is lower in relative viability: 0.655 for the first, 0.583 for the second.

First: NCI-H838
Second: LCLC-103H
The relative viability of the first is lower: 0.28 for the first, 0.396 for the second.

First: NCI-H2126
Second: EMC-BAC-2
The relative viability of the first is higher: 0.818 for the first, 0.264 for the second.

Compared with NCI-H2085, HCC-366 is lower in relative viability: 0.884 for the first, 0.117 for the second.

First: NCI-H1666
Second: NCI-H596
The relative viability of the first is lower: 0.569 for the first, 0.961 for the second.

Going from LK-2 to NCI-H2087, the relative viability rises from 0.199 to 0.228.

First: H3255
Second: LOU-NH91
The relative viability of the first is lower: 0.604 for the first, 0.67 for the second.

Going from NCI-H2170 to NCI-H2405, the relative viability rises from 0.696 to 0.711.

First: HOP-62
Second: LU99A
The relative viability of the first is higher: 0.406 for the first, 0.238 for the second.

Compared with BEN, HARA is lower in relative viability: 0.532 for the first, 0.123 for the second.

Going from HCC-78 to NCI-H322M, the relative viability rises from 0.388 to 0.481.

Going from LCLC-97TM1 to A-427, the relative viability rises from 0.185 to 0.188.

Going from NCI-H441 to NCI-H1734, the relative viability falls from 0.607 to 0.277.

Going from NCI-H460 to NCI-H2347, the relative viability rises from 0.535 to 0.568.

Compared with NCI-H1395, 201T is higher in relative viability: 0.784 for the first, 0.973 for the second.

First: NCI-H1915
Second: HCC-827
The relative viability of the first is higher: 0.441 for the first, 0.406 for the second.

First: LXF-289
Second: NCI-H23
The relative viability of the first is lower: 0.184 for the first, 0.423 for the second.

Going from NCI-H647 to CAL-12T, the relative viability falls from 0.486 to 0.363.

Going from NCI-H1651 to EPLC-272H, the relative viability falls from 0.846 to 0.247.

Same assay, conditions: first compound 0.6325 µM

Compared with NCI-H727, NCI-H1993 is lower in relative viability: 0.689 for the first, 0.622 for the second.

Compared with NCI-H838, LCLC-103H is higher in relative viability: 0.27 for the first, 0.494 for the second.

First: NCI-H2126
Second: EMC-BAC-2
The relative viability of the first is higher: 0.874 for the first, 0.258 for the second.

Going from NCI-H2085 to HCC-366, the relative viability falls from 0.895 to 0.108.

First: NCI-H1666
Second: NCI-H596
The relative viability of the first is lower: 0.727 for the first, 1.1 for the second.

Compared with LK-2, NCI-H2087 is higher in relative viability: 0.178 for the first, 0.269 for the second.

First: H3255
Second: LOU-NH91
The relative viability of the first is higher: 0.851 for the first, 0.703 for the second.

First: NCI-H2170
Second: NCI-H2405
The relative viability of the first is higher: 0.703 for the first, 0.696 for the second.

Going from HOP-62 to LU99A, the relative viability falls from 0.371 to 0.255.

Compared with BEN, HARA is lower in relative viability: 0.47 for the first, 0.125 for the second.

Going from HCC-78 to NCI-H322M, the relative viability rises from 0.439 to 0.451.

Compared with LCLC-97TM1, A-427 is lower in relative viability: 0.423 for the first, 0.221 for the second.

Compared with NCI-H441, NCI-H1734 is lower in relative viability: 0.623 for the first, 0.249 for the second.

First: NCI-H460
Second: NCI-H2347
The relative viability of the first is lower: 0.399 for the first, 0.604 for the second.

Compared with NCI-H1395, 201T is higher in relative viability: 0.705 for the first, 0.908 for the second.

First: NCI-H1915
Second: HCC-827
The relative viability of the first is higher: 0.465 for the first, 0.45 for the second.

Going from LXF-289 to NCI-H23, the relative viability rises from 0.195 to 0.385.

First: NCI-H647
Second: CAL-12T
The relative viability of the first is lower: 0.272 for the first, 0.381 for the second.

Going from NCI-H1651 to EPLC-272H, the relative viability falls from 0.75 to 0.269.

Same assay, conditions: first compound 2 µM

Going from NCI-H727 to NCI-H1993, the relative viability falls from 0.828 to 0.604.

Going from NCI-H838 to LCLC-103H, the relative viability rises from 0.286 to 0.462.

Compared with NCI-H2126, EMC-BAC-2 is lower in relative viability: 0.868 for the first, 0.32 for the second.

Going from NCI-H2085 to HCC-366, the relative viability falls from 0.971 to 0.105.

Compared with NCI-H1666, NCI-H596 is higher in relative viability: 0.635 for the first, 0.91 for the second.

Going from LK-2 to NCI-H2087, the relative viability rises from 0.187 to 0.292.

First: H3255
Second: LOU-NH91
The relative viability of the first is lower: 0.641 for the first, 0.649 for the second.

Compared with NCI-H2170, NCI-H2405 is higher in relative viability: 0.788 for the first, 0.83 for the second.

Going from HOP-62 to LU99A, the relative viability falls from 0.401 to 0.283.

Going from BEN to HARA, the relative viability falls from 0.576 to 0.0997.

Going from HCC-78 to NCI-H322M, the relative viability rises from 0.314 to 0.417.

First: LCLC-97TM1
Second: A-427
The relative viability of the first is higher: 0.311 for the first, 0.238 for the second.

First: NCI-H441
Second: NCI-H1734
The relative viability of the first is higher: 0.581 for the first, 0.26 for the second.

Going from NCI-H460 to NCI-H2347, the relative viability rises from 0.361 to 0.743.

First: NCI-H1395
Second: 201T
The relative viability of the first is lower: 0.835 for the first, 0.946 for the second.

Going from NCI-H1915 to HCC-827, the relative viability falls from 0.464 to 0.374.

Going from LXF-289 to NCI-H23, the relative viability rises from 0.205 to 0.481.

Compared with NCI-H647, CAL-12T is lower in relative viability: 0.366 for the first, 0.365 for the second.

Compared with NCI-H1651, EPLC-272H is lower in relative viability: 1.01 for the first, 0.344 for the second.

Same assay, conditions: first compound 6.325 µM

Compared with NCI-H727, NCI-H1993 is higher in relative viability: 0.584 for the first, 0.625 for the second.

First: NCI-H838
Second: LCLC-103H
The relative viability of the first is lower: 0.246 for the first, 0.453 for the second.

Compared with NCI-H2126, EMC-BAC-2 is lower in relative viability: 0.826 for the first, 0.317 for the second.

Going from NCI-H2085 to HCC-366, the relative viability falls from 0.612 to 0.0544.

Going from NCI-H1666 to NCI-H596, the relative viability rises from 0.625 to 0.893.

First: LK-2
Second: NCI-H2087
The relative viability of the first is lower: 0.19 for the first, 0.304 for the second.

Compared with H3255, LOU-NH91 is higher in relative viability: 0.742 for the first, 0.769 for the second.

First: NCI-H2170
Second: NCI-H2405
The relative viability of the first is higher: 0.752 for the first, 0.74 for the second.

First: HOP-62
Second: LU99A
The relative viability of the first is higher: 0.441 for the first, 0.262 for the second.

First: BEN
Second: HARA
The relative viability of the first is higher: 0.525 for the first, 0.236 for the second.

Compared with HCC-78, NCI-H322M is higher in relative viability: 0.409 for the first, 0.437 for the second.

Going from LCLC-97TM1 to A-427, the relative viability rises from 0.256 to 0.279.

First: NCI-H441
Second: NCI-H1734
The relative viability of the first is higher: 0.69 for the first, 0.217 for the second.

Compared with NCI-H460, NCI-H2347 is higher in relative viability: 0.625 for the first, 0.64 for the second.

Going from NCI-H1395 to 201T, the relative viability rises from 0.81 to 0.924.

Compared with NCI-H1915, HCC-827 is lower in relative viability: 0.426 for the first, 0.423 for the second.

First: LXF-289
Second: NCI-H23
The relative viability of the first is lower: 0.211 for the first, 0.337 for the second.

First: NCI-H647
Second: CAL-12T
The relative viability of the first is lower: 0.207 for the first, 0.323 for the second.

First: NCI-H1651
Second: EPLC-272H
The relative viability of the first is higher: 0.668 for the first, 0.29 for the second.

What follows are cell lines tested with COc1cc2nc(N3CCCN(C)CC3)nc(NC3CCN(Cc4ccccc4)CC3)c2cc1OC + NC(=O)Nc1cc(-c2cccc(F)c2)sc1C(=O)N[C@H]1CCCNC1 [AZD7762] (partner 0.2 µM) in the same assay as above. Settings: first compound 0.2 µM.
Summary of the method: as §1

Going from NCI-H727 to NCI-H1993, the relative viability rises from 0.646 to 0.73.

Compared with NCI-H838, LCLC-103H is lower in relative viability: 0.974 for the first, 0.814 for the second.

First: NCI-H2126
Second: EMC-BAC-2
The relative viability of the first is lower: 1.04 for the first, 1.06 for the second.

For NCI-H2085, the relative viability was 0.992.
